From patent US12582598B2, “Topical anti-inflammatory pharmaceutical composition comprising Zileuton” (QURIENT CO., LTD., priority 2019, dated 2026)
In brackets after ≈: the same amount, converted by molar mass.

Key:
[1] = Approximate solubility of Zileuton in various solvents/vehicles; type: physicochemical
Procedure: Solubility of Zileuton in Various Solvents
Approximately solubility of the Zileuton was measured in different vehicles. Semi-soild and waxy solid excipients were melted and tested at 50° C. or 70° C.

[2] = test system: phorbol ester induced ear edema in ICR mice; experiment: Phorbol ester induced ear edema test; type: in vivo
Procedure: Phorbol Ester Induced Ear Edema Test
The effect of Zileuton-containing formulations on phorbol ester induced ear edema in ICR mice was evaluated. One hundred and twenty (120) female ICR mice were assigned to eleven (11) groups by randomization with BioBook software to achieve similar mean weight and right ear thickness baseline among groups. Mice were terminated by 95% CO2 asphyxiation and then cervical dislocation.
Totally nine (9) Zileuton-containing formulations which are SO13, SO17, WB6, Gel-10, Gel-11, LO3, LO13, SPC19 and Zileuton 1.0% cream were selected for the tests Dexamethasone were used for the reference and Acetone was treated to the vehicle group.
Mice were anesthetized with 2-5 isoflurane. The mice were sensitized by painting 5 μg of phorbol ester dissolved in 0.02 mL of Acetone on ear inside and out. […] Six (6) hours after the modeling, the both side's ear thickness were measured after anesthetized by isoflurane (2-3%), respectively. Ear swelling response was determined by ear thickness measured with a micrometer before challenge and 6 hours after challenge and reported as the mean change in ear thickness (ΔT±S.E.M.). Percent suppression of ear swelling response was calculated as % suppression=[1−(ΔT of sensitized mice exposed to experimental treatment/ΔT of sensitized mice exposed to vehicle treatment)]×100.

Structure (SMILES): CC(c1cc2ccccc2s1)N(O)C(N)=O (racemic) [Zileuton, (±)-1-(1-(benzo[b]thiophen-2-yl)ethyl)-1-hydroxyurea]
- solubility ([1]; 25 mM sodium citrate buffer, 25 °C, pH 4, aqueous buffer, vehicle 25 mM sodium citrate buffer solution (pH = 4)): < 5 mg/mL
- solubility ([1]; 20% 2-Hydroxypropyl-β-cyclodextrin in water, 25 °C, aqueous with cosolvent or surfactant or cyclodextrin, vehicle 20% 2-Hydroxypropyl-β-cyclodextrin in water): 10 to 16.7 mg/mL (≈ 42.3 to 70.7 mM)
- solubility ([1]; 20% Poloxamer 188 in water, 25 °C, aqueous with cosolvent or surfactant or cyclodextrin, vehicle 20% Poloxamer 188 water): < 5 mg/mL
- solubility ([1]; 20% Sulfobutylether-β-cyclodextrin in water, 25 °C, aqueous with cosolvent or surfactant or cyclodextrin, vehicle 20% Sulfobutylether-β-cyclodextrin in water): 10 to 16.7 mg/mL (≈ 42.3 to 70.7 mM)
- solubility ([1]; 25 °C, pH 4, aqueous with cosolvent or surfactant or cyclodextrin, vehicle 20% 2-Hydroxypropyl-β-cyclodextrin in pH 4 sodium citrate buffer): 10 to 16.7 mg/mL (≈ 42.3 to 70.7 mM)
- solubility ([1]; 25 °C, pH 4, aqueous with cosolvent or surfactant or cyclodextrin, vehicle 20% Sulfobutylether-β-cyclodextrin in pH 4 sodium citrate buffer): 5 to 10 mg/mL (≈ 21.2 to 42.3 mM)
- solubility ([1]; Beeswax polyethylene glycol-8, 70 °C, oil or lipid, vehicle Beeswax polyethylene glycol-8, 70° C.): 15.7 to 25 mg/mL (≈ 66.4 to 106 mM)
- solubility ([1]; Caprylic glycerides, 50 °C, oil or lipid, vehicle Caprylic glycerides): 18.2 to 28.6 mg/mL (≈ 77 to 121 mM)
- solubility ([1]; Caprylocaproyl polyoxyl glycerides, 25 °C, oil or lipid, vehicle Caprylocaproyl polyoxyl glycerides): 40 to 66.7 mg/mL (≈ 169 to 282 mM)
- solubility ([1]; Castor oil, 25 °C, oil or lipid, vehicle Castor oil): < 5 mg/mL
- solubility ([1]; Corn oil, 25 °C, oil or lipid, vehicle Corn oil): < 5 mg/mL
- solubility ([1]; Diethylene glycol monoethyl ether, 25 °C, organic solvent or mixture, vehicle Diethylene glycol monoethyl ether): > 200 mg/mL
- solubility ([1]; Dimethyl acetamide, 25 °C, organic solvent or mixture, vehicle Dimethyl acetamide): 66.7 to 100 mg/mL (≈ 282 to 423 mM)
- solubility ([1]; Dimethyl formamide, 25 °C, organic solvent or mixture, vehicle Dimethyl formamide): 100 to 200 mg/mL (≈ 423 to 846 mM)
- solubility ([1]; Dimethyl sulfoxide, 25 °C, organic solvent or mixture, vehicle Dimethyl sulfoxide): 100 to 200 mg/mL (≈ 423 to 846 mM)
- solubility ([1]; Ethanol, 25 °C, organic solvent or mixture, vehicle Ethanol): 40 to 50 mg/mL (≈ 169 to 212 mM)
- solubility ([1]; Ethyl oleate, 25 °C, oil or lipid, vehicle Ethyl oleate): < 5 mg/mL
- solubility ([1]; Ethylene glycol palmitostearate, 70 °C, oil or lipid, vehicle Ethylene glycol palmitostearate): 50 to 100 mg/mL (≈ 212 to 423 mM)
- solubility ([1]; Glycerin, 25 °C, organic solvent or mixture, vehicle Glycerin): < 10 mg/mL
- solubility ([1]; Glyceryl mono and di stearate, 70 °C, oil or lipid, vehicle Glyceryl mono and di stearate): 25 to 50 mg/mL (≈ 106 to 212 mM)
- solubility ([1]; Glyceryl monocaprate type I, 25 °C, oil or lipid, vehicle Glyceryl monocaprate type I): 8.3 to 12.5 mg/mL (≈ 35.1 to 52.9 mM)
- solubility ([1]; Glyceryl monolinoleate, 25 °C, oil or lipid, vehicle Glyceryl monolinoleate): < 5 mg/mL
- solubility ([1]; Glyceryl monostearate, 70 °C, oil or lipid, vehicle Glyceryl monostearate): 25 to 50 mg/mL (≈ 106 to 212 mM)
- solubility ([1]; Hexylene glycol, 25 °C, organic solvent or mixture, vehicle Hexylene glycol): 25 to 50 mg/mL (≈ 106 to 212 mM)
- solubility ([1]; Isopropyl myristate, 25 °C, oil or lipid, vehicle Isopropyl myristate): < 5 mg/mL
- solubility ([1]; Lanolin, 70 °C, oil or lipid, vehicle Lanolin): < 5 mg/mL
- solubility ([1]; Lauroyl polyoxyl-6 glycerides, 50 °C, oil or lipid, vehicle Lauroyl polyoxyl-6 glycerides): < 10 mg/mL
- solubility ([1]; Lauroyl polyoxyl-32 glycerides, 50 °C, oil or lipid, vehicle Lauroyl polyoxyl-32 glycerides): < 10 mg/mL
- solubility ([1]; Linoleoyl polyoxyl-6 glycerides, 25 °C, oil or lipid, vehicle Linoleoyl polyoxyl-6 glycerides): < 5 mg/mL
- solubility ([1]; Liquid paraffin, 25 °C, oil or lipid, vehicle Liquid paraffin): < 5 mg/mL
- solubility ([1]; Medium chain triglycerides, 25 °C, oil or lipid, vehicle Medium chain triglycerides): < 5 mg/mL
- solubility ([1]; N-methyl-2-pyrrolidone, 25 °C, organic solvent or mixture, vehicle N-methyl-2-pyrrolidone): > 200 mg/mL
- solubility ([1]; Oleic acid, 25 °C, oil or lipid, vehicle Oleic acid): < 5 mg/mL
- solubility ([1]; Oleoyl polyoxyl-6 glycerides, 25 °C, oil or lipid, vehicle Oleoyl polyoxyl-6 glycerides): < 5 mg/mL
- solubility ([1]; Olive oil, 25 °C, oil or lipid, vehicle Olive oil): < 5 mg/mL
- solubility ([1]; Paraffin, 70 °C, oil or lipid, vehicle Paraffin): < 5 mg/mL
- solubility ([1]; Peceol, 25 °C, oil or lipid, vehicle Peceol): < 5 mg/mL
- solubility ([1]; Poly-oxyethylene esters of 12-hydroxystearic acid, 50 °C, organic solvent or mixture, vehicle Poly-oxyethylene esters of 12-hydroxystearic acid): 40 to 100 mg/mL (≈ 169 to 423 mM)
- solubility ([1]; Polyethylene glyco-40 hydrogenated castor oil, 50 °C, organic solvent or mixture, vehicle Polyethylene glyco-40 hydrogenated castor oil): 22.2 to 28.6 mg/mL (≈ 93.9 to 121 mM)
- solubility ([1]; Polyethylene glycol 200, 25 °C, organic solvent or mixture, vehicle Polyethylene glycol 200, 25° C.): 50 to 66.7 mg/mL (≈ 212 to 282 mM)
- solubility ([1]; Polyethylene glycol 300, 25 °C, organic solvent or mixture, vehicle Polyethylene glycol 300, 25° C.): 40 to 66.7 mg/mL (≈ 169 to 282 mM)
- solubility ([1]; Polyethylene glycol 400, 25 °C, organic solvent or mixture, vehicle Polyethylene glycol 400, 25° C.): 40 to 66.7 mg/mL (≈ 169 to 282 mM)
- solubility ([1]; Polyethylene glycol 1500, 70 °C, organic solvent or mixture, vehicle Polyethylene glycol 1500, 70° C.): 50 to 100 mg/mL (≈ 212 to 423 mM)
- solubility ([1]; Polyethylene glycol 3350, 70 °C, organic solvent or mixture, vehicle Polyethylene glycol 3350, 70° C.): 25 to 50 mg/mL (≈ 106 to 212 mM)
- solubility ([1]; Polyethylene glycol 6000, 70 °C, organic solvent or mixture, vehicle Polyethylene glycol 6000, 70° C.): 25 to 50 mg/mL (≈ 106 to 212 mM)
- solubility ([1]; Polyethylene glycol octadecyl ether, 25 °C, organic solvent or mixture, vehicle Polyethylene glycol octadecyl ether): 10 to 11.1 mg/mL (≈ 42.3 to 47 mM)
- solubility ([1]; Polyethylene glycol sorbitan monolaurate, 25 °C, organic solvent or mixture, vehicle Polyethylene glycol sorbitan monolaurate): 12.5 to 14.3 mg/mL (≈ 52.9 to 60.5 mM)
- solubility ([1]; Polyoxy ethylene sorbitan monooleate, 25 °C, organic solvent or mixture, vehicle Polyoxy ethylene sorbitan monooleate): 12.5 to 14.3 mg/mL (≈ 52.9 to 60.5 mM)
- solubility ([1]; Polyoxy ethylene sorbitan monostearate, 25 °C, organic solvent or mixture, vehicle Polyoxy ethylene sorbitan monostearate): 33.3 to 50 mg/mL (≈ 141 to 212 mM)
- solubility ([1]; Polyoxyl 35 hydrogenated castor oil, 25 °C, organic solvent or mixture, vehicle Polyoxyl 35 hydrogenated castor oil): 12.5 to 14.3 mg/mL (≈ 52.9 to 60.5 mM)
- solubility ([1]; Propylene glycol dicaprylate, 25 °C, oil or lipid, vehicle Propylene glycol dicaprylate): < 5 mg/mL
- solubility ([1]; Propylene glycol monocaprylate type II, 25 °C, oil or lipid, vehicle Propylene glycol monocaprylate type II): 12.5 to 25 mg/mL (≈ 52.9 to 106 mM)
- solubility ([1]; Propylene glycol monolaurate, 25 °C, oil or lipid, vehicle Propylene glycol monolaurate): 8.3 to 12.5 mg/mL (≈ 35.1 to 52.9 mM)
- solubility ([1]; Propylene glycol, 25 °C, organic solvent or mixture, vehicle Propylene glycol): 40 to 66.7 mg/mL (≈ 169 to 282 mM)
- solubility ([1]; Sorbitan monolaurate, 25 °C, oil or lipid, vehicle Sorbitan monolaurate): < 5 mg/mL
- solubility ([1]; Sorbitane monooleate, 25 °C, oil or lipid, vehicle Sorbitane monooleate): < 5 mg/mL
- solubility ([1]; Triethanolamine, 25 °C, organic solvent or mixture, vehicle Triethanolamine): < 10 mg/mL
- solubility ([1]; Water, 25 °C, vehicle Water): < 5 mg/mL
- solubility ([1]; White vaseline, 70 °C, oil or lipid, vehicle White vaseline): < 5 mg/mL
- solubility ([1]; White wax, 70 °C, oil or lipid, vehicle White wax): < 5 mg/mL
- solubility ([1]; d-a-tocopheryl polyethylene glycol 1000 succinate, 50 °C, oil or lipid, vehicle d-a-tocopheryl polyethylene glycol 1000 succinate): < 10 mg/mL

Structure (SMILES): C[C@@H]1C[C@H]2[C@@H]3CCC4=CC(=O)C=C[C@]4(C)[C@@]3(F)[C@@H](O)C[C@]2(C)[C@@]1(O)C(=O)CO [Dex, Dexamethasone]
- ear swelling (ear swelling response) ([2]; ICR mice, phorbol ester 5 μg/ear, result in words): significant decrease in ear swelling
- Suppression Rate: % suppression Vs G1-right ear ([2]; female ICR mice, phorbol ester (PMA) 5 μg/ear, topical treatment, ear thickness 6 hours after challenge, vs vehicle (Acetone) group): 27.14%
